Test results reported in PMC9330476 (Toxins, 2022).
Entries after “also recorded” stand apart in the source; their conditions may differ. Bridge positions count the residues as written; N and C are the ends. Ends that are not written are not given here. I, II: the chains in the order shown.

Columns and labels:
hα4β2 nAChR = hα4β2 nAChR (Homo sapiens, UniProt P17787+P43681); format: cell-based
hα7 nAChR = hα7 nAChR (Homo sapiens, UniProt P36544); format: cell-based
Sequence of hα7 nAChR (P36544 23-502 limits assumed): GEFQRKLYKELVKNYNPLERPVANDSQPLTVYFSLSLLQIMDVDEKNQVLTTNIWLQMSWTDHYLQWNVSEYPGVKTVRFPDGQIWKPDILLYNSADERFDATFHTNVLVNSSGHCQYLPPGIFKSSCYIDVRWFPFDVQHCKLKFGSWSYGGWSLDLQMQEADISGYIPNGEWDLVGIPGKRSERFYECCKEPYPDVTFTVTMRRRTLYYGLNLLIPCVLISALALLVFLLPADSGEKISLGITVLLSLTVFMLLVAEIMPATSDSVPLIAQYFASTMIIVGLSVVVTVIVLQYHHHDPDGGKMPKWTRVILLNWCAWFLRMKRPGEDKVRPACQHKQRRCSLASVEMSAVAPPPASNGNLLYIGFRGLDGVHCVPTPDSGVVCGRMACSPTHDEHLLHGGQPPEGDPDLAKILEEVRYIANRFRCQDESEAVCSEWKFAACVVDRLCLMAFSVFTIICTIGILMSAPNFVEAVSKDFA

Sequence of hα4β2 nAChR (P43681 29-627 limits assumed): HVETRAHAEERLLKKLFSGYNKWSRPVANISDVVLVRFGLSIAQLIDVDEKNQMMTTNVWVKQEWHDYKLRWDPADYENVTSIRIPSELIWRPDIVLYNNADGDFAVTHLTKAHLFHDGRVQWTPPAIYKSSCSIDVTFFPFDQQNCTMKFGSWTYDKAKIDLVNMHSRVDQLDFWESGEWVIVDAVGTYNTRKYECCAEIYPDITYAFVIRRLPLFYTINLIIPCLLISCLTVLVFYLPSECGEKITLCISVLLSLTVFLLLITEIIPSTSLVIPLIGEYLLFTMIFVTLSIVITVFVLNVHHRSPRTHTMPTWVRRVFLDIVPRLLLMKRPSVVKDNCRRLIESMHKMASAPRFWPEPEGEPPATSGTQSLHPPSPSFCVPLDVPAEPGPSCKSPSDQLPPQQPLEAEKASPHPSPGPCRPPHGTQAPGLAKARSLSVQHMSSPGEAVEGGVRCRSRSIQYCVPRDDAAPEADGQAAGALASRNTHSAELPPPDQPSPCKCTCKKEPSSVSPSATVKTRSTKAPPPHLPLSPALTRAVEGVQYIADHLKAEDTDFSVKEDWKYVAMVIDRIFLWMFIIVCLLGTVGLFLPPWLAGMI
Sequence of hα4β2 nAChR (P17787 26-502 limits assumed): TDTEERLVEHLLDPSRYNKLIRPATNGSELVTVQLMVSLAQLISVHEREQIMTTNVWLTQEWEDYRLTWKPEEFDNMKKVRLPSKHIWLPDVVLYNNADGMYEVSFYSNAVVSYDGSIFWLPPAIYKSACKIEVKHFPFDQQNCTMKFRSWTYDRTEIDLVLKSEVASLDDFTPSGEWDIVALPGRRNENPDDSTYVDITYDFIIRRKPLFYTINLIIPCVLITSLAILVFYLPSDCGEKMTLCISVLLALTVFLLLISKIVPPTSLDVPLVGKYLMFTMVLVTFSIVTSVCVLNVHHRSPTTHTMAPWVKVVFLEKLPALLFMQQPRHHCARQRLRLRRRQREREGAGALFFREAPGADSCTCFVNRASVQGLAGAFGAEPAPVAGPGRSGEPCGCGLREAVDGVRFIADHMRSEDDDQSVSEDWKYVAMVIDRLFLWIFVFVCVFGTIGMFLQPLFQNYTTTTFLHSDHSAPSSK

With “I: EARITCQPRGRSKWGRCCLTQMCGNYCCYKHGCRCVYHSWRGHGCSC / II: EARITCQPRGRSKWGRCCLTQMCGNYCCYKHGCRCVYHSWRGHGCSC (disulfide I:6-II:18, I:17-I:27, I:18-II:6, I:23-I:35, I:28-I:45, I:33-I:47, II:17-II:27, II:23-II:35, II:28-II:45, II:33-II:47) [αD-FrXXA]” the “dissociation / reversibility on hα4β2” value (hα4β2 nAChR) was “the fastest was for hα4β2 subtype; also recorded: reversible almost entirely within a few minutes of washing” and the “dissociation / reversibility on hα7” value (hα7 nAChR) was “the slower dissociation was for hα7 subtype (almost irreversible)”.
